{"source": "patent US10125100B2", "about": "“Kinase inhibitors” (Respivert Limited, priority 2014, dated 2018)", "key": {"c-Src": {"target": "c-Src (Homo sapiens (Human), UniProt P12931)", "sequence (P12931 whole entry, looked up)": "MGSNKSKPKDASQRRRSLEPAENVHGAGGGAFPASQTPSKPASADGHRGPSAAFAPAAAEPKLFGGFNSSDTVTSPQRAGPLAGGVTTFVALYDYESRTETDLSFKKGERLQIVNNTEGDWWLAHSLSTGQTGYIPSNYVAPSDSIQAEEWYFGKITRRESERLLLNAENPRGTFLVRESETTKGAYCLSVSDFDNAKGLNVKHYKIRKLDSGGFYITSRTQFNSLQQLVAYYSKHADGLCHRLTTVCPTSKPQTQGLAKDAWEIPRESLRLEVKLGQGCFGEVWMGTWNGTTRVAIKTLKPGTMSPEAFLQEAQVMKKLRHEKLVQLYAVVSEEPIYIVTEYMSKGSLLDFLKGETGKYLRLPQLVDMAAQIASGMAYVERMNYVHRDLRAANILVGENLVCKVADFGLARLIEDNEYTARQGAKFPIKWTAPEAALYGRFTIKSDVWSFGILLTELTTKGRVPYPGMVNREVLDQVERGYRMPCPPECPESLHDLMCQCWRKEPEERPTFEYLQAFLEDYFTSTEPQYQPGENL", "experiment": "c-Src enzyme inhibition, Z-LYTE FRET", "format": "biochemical", "how_it_was_run": "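Z-LYTE FRET peptide phosphorylation read as donor coumarin over acceptor fluorescein ratio after 1 hr protease development. Compounds (1–0.001 μg/mL) preincubated 2 hr at RT with enzyme; ATP solutions 60 μM for Syk, 800 μM for c-Src; kinase reaction 1 hr.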"}, "B-Raf": {"target": "B-Raf (Homo sapiens (Human), UniProt P15056)", "sequence (P15056 whole entry)": "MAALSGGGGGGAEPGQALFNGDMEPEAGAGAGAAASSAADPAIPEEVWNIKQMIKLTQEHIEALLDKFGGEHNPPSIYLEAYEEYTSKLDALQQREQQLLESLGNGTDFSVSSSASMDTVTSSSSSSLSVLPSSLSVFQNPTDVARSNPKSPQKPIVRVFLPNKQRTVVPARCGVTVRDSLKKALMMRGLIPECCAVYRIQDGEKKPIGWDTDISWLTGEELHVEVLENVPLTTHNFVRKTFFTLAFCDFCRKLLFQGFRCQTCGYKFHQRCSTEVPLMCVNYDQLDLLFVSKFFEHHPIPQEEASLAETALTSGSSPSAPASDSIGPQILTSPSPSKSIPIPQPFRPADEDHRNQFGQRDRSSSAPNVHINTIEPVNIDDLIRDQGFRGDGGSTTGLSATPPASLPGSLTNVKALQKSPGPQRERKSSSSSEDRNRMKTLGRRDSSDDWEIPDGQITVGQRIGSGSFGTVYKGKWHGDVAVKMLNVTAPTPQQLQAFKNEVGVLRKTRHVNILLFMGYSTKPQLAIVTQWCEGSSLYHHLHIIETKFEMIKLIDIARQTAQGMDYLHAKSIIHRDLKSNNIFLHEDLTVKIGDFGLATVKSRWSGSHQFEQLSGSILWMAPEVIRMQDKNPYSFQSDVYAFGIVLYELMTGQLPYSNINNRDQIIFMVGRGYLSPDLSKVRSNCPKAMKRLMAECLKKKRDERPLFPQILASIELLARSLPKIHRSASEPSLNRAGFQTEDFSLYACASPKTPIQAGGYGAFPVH", "experiment": "KINOMEscan binding of kinase to standard ligand", "settings": "KINOMEscan technology", "description": "(§1) These assays may be conducted by DiscoverX (formerly Ambit; San Diego, Calif.)."}, "B-Raf (V600E)": {"target": "B-Raf (V600E) (Homo sapiens (Human), UniProt P15056, V600E)", "sequence (P15056 whole entry V600E)": "as the sequence (P15056 whole entry) above, with V600E counted along it", "experiment": "KINOMEscan binding of kinase to standard ligand", "settings": "KINOMEscan technology", "description": "as §1"}, "Syk": {"target": "Syk (Homo sapiens (Human), UniProt P43405)", "experiment": "Syk enzyme inhibition, Z-LYTE FRET", "format": "biochemical", "how_it_was_run": "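Syk or c-Src enzyme (3000 or 2000 ng/mL solutions) was preincubated 2 h at RT with compound solutions at 1, 0.1, 0.01 or 0.001 µg/mL. Z-LYTE FRET peptide (8 µM solution) and ATP (800 µM solution for c-Src, 60 µM for Syk) were then added for 1 h, followed by protease development for 1 h. Phosphorylation was read as the coumarin/fluorescein emission ratio.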"}, "non-mutant kinases": {"tested_on": "non-mutant kinases", "experiment": "KinomeScan selectivity scores", "format": "binding", "settings": "for number of individual kinase hits S(1): % Ctrl <1; for number of individual kinase hits S(10): % Ctrl <10; for number of individual kinase hits S(35): % Ctrl <35; for KinomeScan Selectivity Score S(1): non-mutant kinases with % Ctrl <1 / kinases tested; for KinomeScan Selectivity Score S(10): non-mutant kinases with % Ctrl <10 / kinases tested; for KinomeScan Selectivity Score S(35): non-mutant kinases with % Ctrl <35 / kinases tested", "description": "as §1"}, "p38 MAPKα (MAPK14)": {"target": "p38 MAPKα (MAPK14) (Homo sapiens (Human), UniProt Q16539)", "sequence (Q16539 whole entry)": "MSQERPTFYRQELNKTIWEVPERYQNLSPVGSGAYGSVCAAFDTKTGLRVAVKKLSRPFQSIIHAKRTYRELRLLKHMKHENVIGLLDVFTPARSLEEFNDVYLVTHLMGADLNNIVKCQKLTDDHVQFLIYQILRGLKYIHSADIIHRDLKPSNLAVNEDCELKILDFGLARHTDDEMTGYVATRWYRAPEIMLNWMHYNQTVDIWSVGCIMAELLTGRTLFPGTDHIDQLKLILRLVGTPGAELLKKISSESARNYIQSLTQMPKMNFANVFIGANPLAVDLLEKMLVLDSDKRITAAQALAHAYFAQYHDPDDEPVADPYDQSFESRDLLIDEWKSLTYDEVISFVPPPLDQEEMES", "experiment": "p38 MAPKα enzyme inhibition (Method 2), Z-LYTE FRET", "format": "biochemical", "how_it_was_run": "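Enzyme (200 ng/mL solution) was preincubated 2 h at RT with compound solutions of 1, 0.1, 0.01 or 0.001 μg/mL, and inhibition was read indirectly via MAPKAP-K2 activation/phosphorylation. After a 1 h RT reaction and 1 h protease development, phosphorylation was derived from the coumarin/fluorescein emission ratio.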"}, "[1]": {"experiment": "Pharmacokinetics and total colon distribution after oral administration", "format": "in vivo", "settings": "male, C57BL/6, mouse, mice, Ex. 36 measured after oral 5 mg/kg of Ex. 47 (Na salt)", "method": "Studies were conducted by Sai Life Sciences (Hinjewadi, Pune, India) to investigate the systemic pharmacokinetics and total colon tissue distribution of compounds of the invention. In particular, pharmacokinetic studies were carried out in male C57BL/6 mice following a single oral administration of the compound."}, "Jurkat cells": {"tested_on": "Jurkat cells", "experiment": "(r) Cell cytotoxicity assay", "format": "cell-based, human", "settings": "24 hours", "how_it_was_run": "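Viability read by flow cytometry as the fraction of propidium iodide-negative cells (7.5 μg/mL PI, 15 min), relative to 1.0% DMSO control. Beforehand, 1×10^5 Jurkat cells in RPMI/10% FBS were treated 24 h at 37° C., 5% CO2 with test compound at final 20, 5 or 1 μg/mL.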"}, "[2]": {"settings": "total colon, read-out: total colon level"}, "[3]": {"settings": "whole blood, read-out: Mean blood concentration"}}, "note": "Where two headings read alike, the source gives them in different places."}
{"smiles": "COc1cc(Nc2cc(Oc3ccc(NC(=O)Nc4cc(C(C)(C)C)cc(NS(C)(=O)=O)c4OC)c4ccccc34)ccn2)cc(OC)c1C(=O)NCCOCCOCCO", "note": "[Example 36, 4-((4-((4-(3-(5-(tert-butyl)-2-methoxy-3-(methylsulfonamido)phenyl)ureido)naphthalen-1-yl)oxy)pyridin-2-yl)amino)-N-(2-(2-(2-hydroxyethoxy)ethoxy)ethyl)-2,6-dimethoxybenzamide]", "values": [{"measurement": "IC50", "setting": "c-Src", "result": 10, "unit": "nM"}, {"measurement": "effect on the binding of B-Raf to its standard ligand", "setting": "B-Raf", "result": "did not have any significant effect"}, {"measurement": "effect on the binding of B-Raf (V600E) to its standard ligand", "setting": "B-Raf (V600E)", "result": "did not have any significant effect"}, {"measurement": "IC50", "setting": "Syk", "result": 190, "unit": "nM"}, {"measurement": "number of individual kinase hits S(1)", "setting": "non-mutant kinases; 50 nM", "result": 1}, {"measurement": "number of individual kinase hits S(10)", "setting": "non-mutant kinases; 50 nM", "result": 20}, {"measurement": "number of individual kinase hits S(35)", "setting": "non-mutant kinases; 50 nM", "result": 60}, {"measurement": "KinomeScan Selectivity Score S(1)", "setting": "non-mutant kinases; 50 nM", "result": 0.002}, {"measurement": "KinomeScan Selectivity Score S(10)", "setting": "non-mutant kinases; 50 nM", "result": 0.050}, {"measurement": "KinomeScan Selectivity Score S(35)", "setting": "non-mutant kinases; 50 nM", "result": 0.149}, {"measurement": "number of individual kinase hits S(1)", "setting": "non-mutant kinases; 500 nM", "result": 32}, {"measurement": "number of individual kinase hits S(10)", "setting": "non-mutant kinases; 500 nM", "result": 83}, {"measurement": "number of individual kinase hits S(35)", "setting": "non-mutant kinases; 500 nM", "result": 120}, {"measurement": "KinomeScan Selectivity Score S(1)", "setting": "non-mutant kinases; 500 nM", "result": 0.079}, {"measurement": "KinomeScan Selectivity Score S(10)", "setting": "non-mutant kinases; 500 nM", "result": 0.206}, {"measurement": "KinomeScan Selectivity Score S(35)", "setting": "non-mutant kinases; 500 nM", "result": 0.298}, {"measurement": "IC50", "setting": "p38 MAPKα (MAPK14)", "result": 19, "unit": "nM"}, {"measurement": "concentration at 0.5 h", "setting": "[1]; [2]", "result": 37.8, "unit": "ng/g"}, {"measurement": "concentration at 1 h", "setting": "[1]; [2]", "result": 95.1, "unit": "ng/g"}, {"measurement": "concentration at 2 h", "setting": "[1]; [2]", "result": 643, "unit": "ng/g"}, {"measurement": "concentration at 4 h", "setting": "[1]; [2]", "result": 798, "unit": "ng/g"}, {"measurement": "concentration at 6 h", "setting": "[1]; [2]", "result": 380, "unit": "ng/g"}, {"measurement": "concentration at 8 h", "setting": "[1]; [2]", "result": 1070, "unit": "ng/g"}, {"measurement": "concentration at 12 h", "setting": "[1]; [2]", "result": 139, "unit": "ng/g"}, {"measurement": "concentration at 24 h", "setting": "[1]; [2]", "result": 0, "unit": "ng/g"}, {"measurement": "concentration at 0.5 h", "setting": "[1]; [3]", "result": 0, "unit": "ng/mL"}, {"measurement": "concentration at 1 h", "setting": "[1]; [3]", "result": 0, "unit": "ng/mL"}, {"measurement": "concentration at 2 h", "setting": "[1]; [3]", "result": 0, "unit": "ng/mL"}, {"measurement": "concentration at 4 h", "setting": "[1]; [3]", "result": 0, "unit": "ng/mL"}, {"measurement": "concentration at 6 h", "setting": "[1]; [3]", "result": 0, "unit": "ng/mL"}, {"measurement": "concentration at 8 h", "setting": "[1]; [3]", "result": 0, "unit": "ng/mL"}, {"measurement": "concentration at 12 h", "setting": "[1]; [3]", "result": 0, "unit": "ng/mL"}, {"measurement": "concentration at 24 h", "setting": "[1]; [3]", "result": 0, "unit": "ng/mL"}, {"measurement": "% Viability at 1 μg/mL", "setting": "Jurkat cells; 1 μg/mL", "result": 93.3, "unit": "%"}, {"measurement": "% Viability at 5 μg/mL", "setting": "Jurkat cells; 5 μg/mL", "result": 89.3, "unit": "%"}, {"measurement": "% Viability at 20 μg/mL", "setting": "Jurkat cells; 20 μg/mL", "result": 84.9, "unit": "%"}]}
